Data reported in patent publication US6878722B2, “Substituted cycloalkyl P1′ hepatitis C virus inhibitors” (Bristol-Myers Squibb Company, priority 2002, dated 2005).

Legend:
[1] = target: T1, HCV NS3/4A protease complex (BMS strain, genotype 1a) (Hepatitis C virus genotype 1a, UniProt P27958, C1454S); test: Recombinant HCV NS3/4A protease complex FRET peptide assay, BMS strain; assay type: biochemical; details: IC50 range, NS3/4A BMS Strain
T1 construct: DNA encoding the recombinant HCV NS3/4A protease complex (amino acids 1027 to 1711) for these strains; inferred from the pET21b vector and Ni-NTA purification; made in house; host or cells: Escherichia coli BL21 (DE3), pET21b
T1 sequence (P27958 1658-1714, looked up, stated change not applied): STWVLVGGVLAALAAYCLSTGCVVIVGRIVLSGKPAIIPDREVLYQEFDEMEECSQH
T1 sequence (P27958 1027-1657, looked up, stated change not applied): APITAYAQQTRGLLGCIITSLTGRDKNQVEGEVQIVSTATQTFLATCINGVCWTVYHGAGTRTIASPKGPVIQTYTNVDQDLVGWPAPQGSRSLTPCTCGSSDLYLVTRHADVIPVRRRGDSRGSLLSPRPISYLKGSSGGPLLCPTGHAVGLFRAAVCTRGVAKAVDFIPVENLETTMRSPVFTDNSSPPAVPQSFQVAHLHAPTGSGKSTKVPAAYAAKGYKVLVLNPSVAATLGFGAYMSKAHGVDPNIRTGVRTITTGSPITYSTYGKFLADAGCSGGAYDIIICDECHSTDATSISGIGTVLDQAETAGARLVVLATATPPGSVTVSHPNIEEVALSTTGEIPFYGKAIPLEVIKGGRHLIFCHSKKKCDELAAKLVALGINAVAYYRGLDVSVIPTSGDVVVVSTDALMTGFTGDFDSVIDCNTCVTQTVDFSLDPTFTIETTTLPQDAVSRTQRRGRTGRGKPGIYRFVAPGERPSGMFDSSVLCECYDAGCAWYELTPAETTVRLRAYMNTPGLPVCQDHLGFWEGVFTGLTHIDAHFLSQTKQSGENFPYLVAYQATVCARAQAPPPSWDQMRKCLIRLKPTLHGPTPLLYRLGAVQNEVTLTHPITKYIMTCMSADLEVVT
From the text: The purpose of this in vitro assay was to measure the inhibition of HCV NS3 protease complexes, derived from the BMS, H77C or J416S strains, as described below, by compounds of the present invention.
Serum from an HCV-infected patient was obtained from Dr. T. Wright, San Francisco Hospital. An engineered full-length cDNA (compliment deoxyribonucleic acid) template of the HCV genome (BMS strain) was constructed from DNA fragments obtained by reverse transcription-PCR (RT-PCR) of serum RNA (ribonucleic acid) and using primers selected on the basis of homology between other genotype 1a strains. […] The infectious clones, H77C (1a genotype) and J4L6S (1b genotype) were obtained from R. Purcell (NIH) and the sequences are published in Genbank (AAB67036, see Yanagi,M., Purcell,R. H., Emerson,S. U. and Bukh,J. Proc. Natl. Acad. Sci. U.S.A. 94(16),8738-8743 (1997); AF054247, see Yanagi,M., St Claire,M., Shapiro,M., Emerson,S. U., Purcell,R. H. and Bukh,J, Virology 244 (1), 161-172. (1998)).
The BMS, H77C and J4L6S strains were used for production of recombinant NS3/4A protease complexes. DNA encoding the recombinant HCV NS3/4A protease complex (amino acids 1027 to 1711) for these strains were manipulated as described by P. Gallinari et al. (see Gallinari P, Paolini C, Brennan D, Nardi C, Steinkuhler C, De Francesco R. Biochemistry. 38(17):5620-32, (1999)). Briefly, a three-lysine solubilizing tail was added at the 3′-end of the NS4A coding region. The cysteine in the P1 position of the NS4A-NS4B cleavage site (amino acid 1711) was changed to a glycine to avoid the proteolytic cleavage of the lysine tag. Furthermore, a cysteine to serine mutation was introduced by PCR at amino acid position 1454 to prevent the autolytic cleavage in the NS3 helicase domain. The variant DNA fragment was cloned in the pET21b bacterial expression vector (Novagen) and the NS3/4A complex was expressed in Escherichia. coli strain BL21 (DE3) (Invitrogen) following the protocol described by P. Gallinari et al. (see Gallinari P, Brennan D, Nardi C, Brunetti M, Tomei L, Steinkuhler C, De Francesco R., J. Virol. 72(8):6758-69 (1998)) with modifications. Briefly, NS3/4A expression was induced with 0.5 mM Isopropyl β-D-1-thiogalactopyranoside (IPTG) for 22 hr at 20° C. […] The cells were resuspended in lysis buffer (10 mL/g) consisting of 25 mM N-(2-Hydroxyethyl)Piperazine-N′-(2-Ethane Sulfonic acid) (HEPES), pH 7.5, 20% glycerol, 500 mM Sodium Chloride (NaCl), 0.5% Triton-X100, 1 ug/ml lysozyme, 5 mM Magnesium Chloride (MgCl2), 1 ug/ml DnaseI, 5 mM β-Mercaptoethanol (βME), Protease inhibitor—Ethylenediamine Tetraacetic acid (EDTA) free (Roche), homogenized and incubated for 20 mins at 4° C. The homogenate was sonicated and clarified by ultra-centrifugation at 235000 g for 1 hr at 4° C. Imidazole was added to the supernatant to a final concentration of 15 mM and the pH adjusted to 8.0. The crude protein extract was loaded on a Nickel-Nitrilotriacetic acid (Ni-NTA) column pre-equilibrated with buffer B (25 mM HEPES, pH 8.0, 20% glycerol, 500 mM NaCl, 0.5% Triton-X100, 15 mM imidazole, 5 mM βME). The sample was loaded at a flow rate of 1 mL/min. The column was washed with 15 column volumes of buffer C (same as buffer B except with 0.2% Triton-X100). The protein was eluted with 5 column volumes of buffer D (same as buffer C except with 200 mM Imidazole).
NS3/4A protease complex-containing fractions were pooled and loaded on a desalting column Superdex-S200 pre-equilibrated with buffer D (25 mM HEPES, pH7.5, 20% glycerol, 300 mM NaCl, 0.2% Triton-X100, 10 mM βME).

[2] = system: HCV replicon in Huh7 cells; test: HCV replicon cell-based assay (FRET); details: Hepatitis C virus, Huh-7; HCV replicon; read-out: EC50 range
From the text: An HCV replicon whole cell system was established as described by Lohmann V, Korner F, Koch J, Herian U, Theilmann L, Bartenschlager R., Science 285(5424):110-3 (1999). This system enabled us to evaluate the effects of our HCV Protease compounds on HCV RNA replication. Briefly, using the HCV strain 1B sequence described in the Lohmann paper (Assession number: AJ238799), an HCV cDNA was generated encoding the 5′ internal ribosome entry site (IRES), the neomycin resistance gene, the EMCV (encephalomyocarditis viurs)-IRES and the HCV nonstructural proteins, NS3-NS5B, and 3′ non-translated region (NTR). In vitro transcripts of the cDNA were transfected into the human hepatoma cell line, Huh7. […] Resulting cell lines were characterized for positive and negative strand RNA production and protein production over time.
Huh7 cells, constitutively expressing the HCV replicon, were grown in Dulbecco's Modified Eagle Media (DMEM) containing 10% Fetal calf serum (FCS) and 1 mg/ml G418 (Gibco-BRL). Cells were seeded the night before (1.5×10^4 cells/well) in 96-well tissue-culture sterile plates. Compound and no compound controls were prepared in DMEM containing 4% FCS, 1:100 Penicillin/Streptomysin, 1:100 L-glutamine and 5% DMSO in the dilution plate (0.5% DMSO final concentration in the assay). Compound/DMSO mixes were added to the cells and incubated for 4 days at 37° C. After 4 days, plates were rinsed thoroughly with Phosphate-Buffered Saline (PBS) (3 times 150 μl). The cells were lysed with 25 μl of a lysis assay reagent containing the FRET peptide (RET S1, as described for the in vitro enzyme assay). The lysis assay reagent was made from 5× cell Luciferase cell culture lysis reagent(Promega #E153A) diluted to 1× with distilled water, NaCl added to 150 mM final, the FRET peptide diluted to 10 μM final from a 2 mM stock in 100% DMSO. The plate was then placed into the Cytofluor 4000 instrument which had been set to 340 nm excitation/490 emission, automatic mode for 21 cycles and the plate read in a kinetic mode. EC50 determinations were carried out as described for the IC50 determinations.

Structure (SMILES) | IC50 [1] [µM] | EC50 [2] [µM]
C=C[C@@H]1C[C@]1(NC(=O)[C@@H]1C[C@@H](Oc2ccnc3cc(Cl)ccc23)CN1C(=O)[C@@H](NC(=O)OC1CCCC1)C(C)(C)C)C(=O)NS(=O)(=O)C1(CCCC)CC1 [Compound 65, {1-[2-[1-(1-Butyl-cyclopropanesulfonylaminocarbonyl)-2-vinyl-cyclopropylcarbamoyl]-4-(7-chloro-quinolin-4-yloxy)-pyrrolidine-1-carbonyl]-2,2-dimethyl-propyl}-carbamic acid cyclopentyl ester] | < 0.05 | 0.05 to 0.5
C=C[C@@H]1C[C@]1(NC(=O)[C@@H]1C[C@@H](Oc2cc(-c3ccccc3)nc3cc(OC)ccc23)CN1C(=O)[C@@H](NC(=O)OC(C)(C)C)C(C)(C)C)C(=O)NS(=O)(=O)C1(C(=C)C)CC1 [Compound 43, {1-[2-[1-(1-Isopropenyl-cyclopropanesulfonylaminocarbonyl)-2-vinyl-cyclopropylcarbamoyl]-4-(7-methoxy-2-phenyl-quinolin-4-yloxy)-pyrrolidine-1-carbonyl]-2,2-dimethyl-propyl}-carbamic acid tert-butyl ester] | < 0.05 | < 0.05
C=C[C@@H]1C[C@]1(NC(=O)[C@@H]1C[C@@H](Oc2cc(-c3ccccc3)nc3cc(OC)ccc23)CN1C(=O)[C@@H](NC(=O)OC(C)(C)C)C(C)C)C(=O)NS(=O)(=O)C1(CC2CC2)CC1 [Compound 52, {1-[2-[1-(1-Cyclopropylmethyl-cyclopropanesulfonylaminocarbonyl)-2-vinyl-cyclopropylcarbamoyl]-4-(7-methoxy-2-phenyl-quinolin-4-yloxy)-pyrrolidine-1-carbonyl]-2-methyl-propyl}-carbamic acid tert-butyl ester] | < 0.05 | < 0.05
C=CC1C[C@]1(NC(=O)[C@@H]1C[C@@H](Oc2cc(-c3ccccc3)nc3cc(OC)ccc23)CN1C(=O)[C@@H](NC(=O)OC(C)(C)C)C(C)(C)C)C(=O)NS(=O)(=O)C1(COC)CC1 (stereo partly drawn) [Compound 7, {1-[2-[1-(1-Methoxymethylcyclopropanesulfonylaminocarbonyl)-2-vinylcyclopropylcarbamoyl]-4-(7-methoxy-2-phenyl-quinolin-4--yloxy)pyrrolidine-1-carbonyl]-2,2-dimeth-ylpropyl}-carbamic acid tert-butyl ester] | < 0.05 | < 0.05
C=CC1C[C@]1(NC(=O)[C@@H]1C[C@@H](Oc2cc(-c3ccccc3)nc3cc(OC)ccc23)CN1C(=O)[C@@H](NC(=O)OC(C)(C)C)C(C)(C)C)C(=O)NS(=O)(=O)C1(Br)CC1 (stereo partly drawn) [Compound 11, {1-[2-[1-(1-Bromocyclopropanesulfonylaminocarbonyl)-2-vinylcy-clopropylcarbamoyl]-4-(7-methoxy-2-phenylquinolin-4-yloxy)pyrrolidine-1-carbonyl]-2,2-dimethylpropyl}-carbamic acid tert-butyl ester] | < 0.05 | < 0.05
CCCC1(S(=O)(=O)NC(=O)C2(NC(=O)[C@@H]3C[C@@H](Oc4cc(-c5ccccc5)nc5cc(OC)ccc45)CN3C(=O)[C@@H](NC(=O)OC(C)(C)C)C(C)(C)C)CC23CC3)CC1 (mixture of isomers) [Compound 200, (1-{4-(7-Methoxy-2-phenyl-quinolin-4-yloxy)-2-[1-(1-propyl-cyclopropane-sulfonylaminocarbonyl)-spiro[2.2]pent-1-ylcarbamoyl]-pyrrolidine-1-carbonyl}-2,2-dimethyl-propyl)-carbamic acid tert-butyl ester] | 0.05 to 0.5 | 0.5 to 5
C=C[C@@H]1C[C@]1(NC(=O)[C@@H]1C[C@@H](Oc2cc(-c3ccccc3)nc3cc(OC)ccc23)CN1C(=O)[C@@H](NC(=O)NCC)C(C)(C)C)C(=O)NS(=O)(=O)C1(Cc2ccccc2)CC1 [Compound 61, 1-[2-(3-Ethyl-ureido)-3,3-dimethyl-butyryl]-4-(7-methoxy-2-phenyl-quinolin-4-yloxy)-pyrrolidine-2-carboxylic acid [1-(1-benzyl-cyclopropanesulfonylaminocarbonyl)-2-vinyl-cyclopropyl]-amide] | < 0.05 | 0.05 to 0.5
C=C[C@@H]1C[C@]1(NC(=O)[C@@H]1C[C@@H](Oc2cc(-c3ccccc3)nc3cc(OC)ccc23)CN1C(=O)[C@@H](NC(=O)OC(C)(C)C)C(C)(C)C)C(=O)NS(=O)(=O)C1(Cc2ncoc2-c2ccccc2)CC1 [Compound 46] | < 0.05 | < 0.05
C=C[C@@H]1C[C@]1(NC(=O)[C@@H]1C[C@@H](Oc2cc(-c3ccccc3)nc3cc(OC)ccc23)CN1C(=O)[C@@H](NC(=O)CC(C)(C)C)C(C)(C)C)C(=O)NS(=O)(=O)C1(Cc2ccccc2)CC1 [Compound 110] | 0.05 to 0.5 | 0.05 to 0.5
COc1ccc2c(O[C@@H]3C[C@@H](C(=O)N[C@]4(C(=O)NS(=O)(=O)C5(Cc6ccccc6)CC5)CC4C4CC4)N(C(=O)[C@@H](NC(=O)OC(C)(C)C)C(C)(C)C)C3)cc(-c3ccccc3)nc2c1 (stereo partly drawn) [Compound 204] | 0.05 to 0.5 | 0.05 to 0.5
C=C[C@@H]1C[C@]1(NC(=O)[C@@H]1C[C@@H](Oc2cc(-c3ccccc3)nc3cc(OC)ccc23)CN1C(=O)[C@@H](NC(=O)OC(C)(C)C)C(C)(C)C)C(=O)NS(=O)(=O)C1(CC)CC1 [Compound 28] | < 0.05 | < 0.05
COc1ccc2c(O[C@@H]3C[C@@H](C(=O)NC4(C(=O)NS(=O)(=O)C5([Si](C)(C)C)CC5)CC4)N(C(=O)[C@@H](NC(=O)OC(C)(C)C)C(C)(C)C)C3)cc(-c3ccccc3)nc2c1 [Compound 71] | 0.05 to 0.5 | 0.5 to 5
